# Reference: patent US9675663B2, “TUSC2 therapies” (Board of Regents, The University of Texas System, priority 2011, dated 2017)
# “And” between values parts separate entries of the source, which are not always exact repeats. Identical values can stand only once.
# Columns and labels:
# HCC366 and H322 cells = experiment: Effect of AMPK inhibitor on FUS1/MK2206-induced cell death; type: cell-based, human; conditions: AMPK inhibitor present
# Protocol: FIG. 23: The effect of AMPK inhibitor on FUS1/MK2206-induced cell death. Cell survival was assessed in HCC366 and H322 cells treated with FUS1 nanoparticles and various concentrations of MK2206 in the presence or absence of AMPK inhibitor Compound C. Graphs show relative cell survival (y-axis) at various concentrations of MK2206 (x-axis) with and without AMPK inhibitor as indicated.
# (§1) To better determine the mechanism for synergistic FUS1/MK2206 effect, treated cells were subjected to an immunoblots to assess the phosphorylation status of cell signaling molecules. […] Thus, FUS1-increased sensitivity to MK2206 is associated with the down-regulation of AKT and mTOR phosphorylation and up-regulation of AMPK phosphorylation. In view of these studies a proposed FUS/MK2206 signaling pathway is provided as FIG. 25.
# H1299 cells = experiment: Colony formation assay; type: cell-based, human; set-up: Colony formation, groups 1-3 (replicates) / Colony formation, average: unit not given here; conditions: for Colony formation normalized on EV: EV + PBS = 100%; for Colony formation, average / Colony formation, groups 1-3 (replicates): number after + = μg Erlotinib; for Colony formation normalized on pc301: pc301PBS = 100%
# Protocol: FIG. 6: Fus1 and Erlotinib combined treatment effect on colony formation of H1299 cells. […] “EV” indicates empty vector; Fus1 indicates a vector containing Fus1; numerical values following “erlo” indicate μg of Erlotinib; PBS indicates Phosphate-Buffer Saline control. […]
# (§2) To assess cooperative effects of tumor growth data between FUS-1 (FUST) and Erlotinib (Erlo) a Bayesian Bootstrapping analysis approach was used. The Pr(min(μF, μE)<μC|(data) was calculated i.e., the posterior probability that the minimum of the two posterior mean colony formation for FUS-1 alone, μF, or Erlotinib alone, μE, […] the mean posterior colony formation for the combination μC. This probability calculates the likelihood that average colony formation in the combination arm will be less than the minimum of the two single agent arms. Cooperative effects are shown if this posterior probability is large. Thus, the probability of cooperative effect ranges from 0.0 to 1.0 where 0 means no chance of a true cooperative effect given the data observed while 1 means 100% certainty of a cooperative effect given the data observed. The Statistical software S-PLUS 8.0 were used for all the analyses.
# H460 cells = experiment: Colony formation assay; type: cell-based, human; conditions: for Colony formation normalized on EV: EV + PBS = 100%; for Colony formation, average / Colony formation, groups 1-3 (replicates): number after + = μg Erlotinib
# Protocol: FIG. 9: Fus1 and Erlotinib combined treatment effect on colony formation of H460 cells. […] “EV” indicates empty vector; Fus1 indicates a vector containing Fus1; numerical values following “+” indicate μg of Erlotinib; PBS indicates Phosphate-Buffer Saline control.
# as §2
# A549 cells = experiment: Colony formation assay; type: cell-based, human; conditions: for Colony formation normalized on EV: EV + PBS = 100%; for Colony formation, average / Colony formation, groups 1-3 (replicates): number after + = μg Erlotinib; for Colony formation normalized on pc301: pc301PBS = 100%
# Protocol: FIG. 8: Fus1 and Erlotinib combined treatment effect on colony formation of A549 cells. […] “EV” indicates empty vector; Fus1 indicates a vector containing Fus1; numerical values following “+” indicate μg of Erlotinib; PBS indicates Phosphate-Buffer Saline control.
# as §2
# H322 cells = experiment: Colony formation assay; type: cell-based, human; set-up: Colony formation, groups 1-3 (replicates) / Colony formation, average: unit not given here; conditions: for Colony formation normalized on EV: EV + PBS = 100%; for Colony formation, average / Colony formation, groups 1-3 (replicates): number after + = μg Erlotinib; for Colony formation normalized on pc301: pc301PBS = 100%
# Protocol: FIG. 7: Fus1 and Erlotinib combined treatment effect on colony formation of H322 cells. […] “EV” indicates empty vector; Fus1 indicates a vector containing Fus1; numerical values following “+” indicate μg of Erlotinib; PBS indicates Phosphate-Buffer Saline control. […]
# as §2
# H322 = experiment: IC50 of MK2206 alone or with FUS1-nanoparticles; type: cell-based; conditions: Homo sapiens, NCI-H322
# Protocol: (§3) FIG. 17: Single drug treatment of MK2206 on lung cancer cells. […] Cell lines that were further analyzed are indicated by arrows.
# (§4) FIG. 18: FUS1/MK2206-induced cell death in lung cancer cell lines. Graphs show the relative survival rates for the indicated cancer cells (y-axis) when contacted with empty vector (EV) or FUS1 nanoparticles in the presence of increasing concentrations of MK2206 (x-axis).
# (§5) Single drug treatment with AKT inhibitor MK2206 was also assessed in a wide range of lung cancer cell lines. Cell lines indicated by arrows (H322, A549, H2887 and […]) were subjected to further analysis. First, each of the cell lines was treated with FUS1 nanoparticles or empty vector at increasing concentrations of MK2206. […] The effect of the combined therapy was especially evident in H2887, H322 and HCC366 cells. Next, the ability of combined FUS1/MK2206 treatment to inhibit colony formation was studied in the cell lines. […] Thus, FUS1 treatment is able to sensitize cancer cells to the effects of kinase inhibitors such as the AKT inhibitor MK2206. This effect was quantified relative to each studied cell line below in Table 13.
# HCC366 = experiment: IC50 of MK2206 alone or with FUS1-nanoparticles; type: cell-based; conditions: Homo sapiens
# Protocol: as §3, §4, §5
# A549 = experiment: IC50 of MK2206 alone or with FUS1-nanoparticles; type: cell-based; conditions: Homo sapiens
# Protocol: as §3, §4, §5
# H2887 = experiment: IC50 of MK2206 alone or with FUS1-nanoparticles; type: cell-based; conditions: Homo sapiens, NCI-H2887
# Protocol: as §3, §4, §5
# [1] = tested on: phosphorylated AMPK, AKT, mTOR and S6K; experiment: Immunoblot of phosphorylated signaling proteins in FUS1/MK2206-treated cell lines; type: cell-based, human; conditions: addition of MK2206; HCC366 or H322 cells
# Protocol: FIG. 21: Immunoblot of p-AKT, p-AMPK and p-mTOR in FUS1/MK2206-treated cell lines. Phosphorylation specific antibodies were used to assess expression of phosphorylated AMPK, AKT, mTOR and S6K in HCC366 or H322 cells. Cells were treated with empty vector (EV); FUS1 nanoparticles (FUS1); MK2206; empty vector+MK2206 (EV+MK); or FUS1 nanoparticles+MK2206 (FUS1+MK) prior to assessment for phosphorylated protein expression. Immunoblot of β-actin was used as a loading control.
# as §1
structure (smiles),measurement,setting,value
c1cc(-c2cnn3cc(-c4ccc(OCCN5CCCCC5)cc4)cnc23)ccn1 [Compound C],protection from FUS1/MK2206-mediated killing,HCC366 and H322 cells,partially protect cancer cells from FUS1/MK2206-mediated killing
C#Cc1cccc(Nc2ncnc3cc(OCCOC)c(OCCOC)cc23)c1 [Erlotinib],Colony formation normalized on EV,H1299 cells; listed as EV + 1,97%
same,Colony formation normalized on EV,H1299 cells; listed as EV + 2.3,47%
same,"Colony formation, average",H1299 cells; listed as EV + 1,16866
same,"Colony formation, groups 1-3 (replicates)",H1299 cells; listed as EV + 1,18287.0 and 15301.0 and 17010.0
same,"Colony formation, average",H1299 cells; listed as EV + 2.3,8142
same,"Colony formation, groups 1-3 (replicates)",H1299 cells; listed as EV + 2.3,9216.0 and 8082.0 and 7128.0
same,"Colony formation, average",H1299 cells; listed as pc301 + 1,29960
same,"Colony formation, groups 1-3 (replicates)",H1299 cells; listed as pc301 + 1,31957.0 and 25107.0 and 32817.0
same,"Colony formation, average",H1299 cells; listed as pc301 + 2.3,21288
same,"Colony formation, groups 1-3 (replicates)",H1299 cells; listed as pc301 + 2.3,24425.0 and 18192.0 and 21246.0
same,Colony formation normalized on pc301,H1299 cells; listed as EV + 1,40%
same,Colony formation normalized on pc301,H1299 cells; listed as EV + 2.3,19%
same,Colony formation normalized on pc301,H1299 cells; listed as pc301 + 1,71%
same,Colony formation normalized on pc301,H1299 cells; listed as pc301 + 2.3,50%
same,Colony formation normalized on EV,H460 cells; listed as EV + 1,64%
same,Colony formation normalized on EV,H460 cells; listed as EV + 2.3,40%
same,"Colony formation, average",H460 cells; listed as EV + 1,1360
same,"Colony formation, groups 1-3 (replicates)",H460 cells; listed as EV + 1,1216 and 1393 and 1470
same,"Colony formation, average",H460 cells; listed as EV + 2.3,859
same,"Colony formation, groups 1-3 (replicates)",H460 cells; listed as EV + 2.3,750 and 968 and 858
same,Colony formation normalized on EV,A549 cells; listed as EV + 1,93%
same,Colony formation normalized on EV,A549 cells; listed as EV + 2.3,71%
same,"Colony formation, average",A549 cells; listed as EV + 1,2652
same,"Colony formation, groups 1-3 (replicates)",A549 cells; listed as EV + 1,3083 and 2538 and 2334
same,"Colony formation, average",A549 cells; listed as EV + 2.3,2044
same,"Colony formation, groups 1-3 (replicates)",A549 cells; listed as EV + 2.3,2484 and 1910 and 1738
same,"Colony formation, average",A549 cells; listed as pc301 + 1,3203
same,"Colony formation, groups 1-3 (replicates)",A549 cells; listed as pc301 + 1,3779 and 2436 and 3393
same,"Colony formation, average",A549 cells; listed as pc301 + 2.3,1693
same,"Colony formation, groups 1-3 (replicates)",A549 cells; listed as pc301 + 2.3,1625 and 1803 and 1651
same,Colony formation normalized on pc301,A549 cells; listed as EV + 1,47%
same,Colony formation normalized on pc301,A549 cells; listed as EV + 2.3,36%
same,Colony formation normalized on pc301,A549 cells; listed as pc301 + 1,57%
same,Colony formation normalized on pc301,A549 cells; listed as pc301 + 2.3,30%
same,Colony formation normalized on EV,H322 cells; listed as EV + 1,78%
same,Colony formation normalized on EV,H322 cells; listed as EV + 2.3,37%
same,"Colony formation, average",H322 cells; listed as EV + 1,38570
same,"Colony formation, groups 1-3 (replicates)",H322 cells; listed as EV + 1,43621 and 36971 and 35119
same,"Colony formation, average",H322 cells; listed as EV + 2.3,18091
same,"Colony formation, groups 1-3 (replicates)",H322 cells; listed as EV + 2.3,20293 and 16469 and 17511
same,"Colony formation, average",H322 cells; listed as pc301 + 1,39180
same,"Colony formation, groups 1-3 (replicates)",H322 cells; listed as pc301 + 1,44761 and 37701 and 35079
same,"Colony formation, average",H322 cells; listed as pc301 + 2.3,28211
same,"Colony formation, groups 1-3 (replicates)",H322 cells; listed as pc301 + 2.3,28610 and 28943 and 27080
same,Colony formation normalized on pc301,H322 cells; listed as EV + 1,65%
same,Colony formation normalized on pc301,H322 cells; listed as EV + 2.3,30%
same,Colony formation normalized on pc301,H322 cells; listed as pc301 + 1,66%
same,Colony formation normalized on pc301,H322 cells; listed as pc301 + 2.3,47%
NC1(c2ccc(-c3nc4ccn5c(=O)[nH]nc5c4cc3-c3ccccc3)cc2)CCC1 [MK2206],IC50,H322,20.4 µM
same,IC50,HCC366,18.4 µM
same,IC50,A549,2.86 µM
same,IC50,H2887,16.5 µM
same,phosphorylated AKT levels,[1],significantly reduced phosphorylated AKT levels
